Test results published in US20260297042A1, “BIARYLAMIDE DERIVATIVES AND THEIR USE AS PKMYT1 INHIBITORS” (CANCER RESEARCH TECHNOLOGY LIMITED, priority 2023, published 2026).

Tests used:
[1] = target: T1, Human PKMYT1 (Homo sapiens, UniProt Q99640); assay: PKMYT1 biochemical ADP-Glo enzymatic assay; settings: ADP-Glo
T1 construct: Human PKMYT1 75-362 was cloned as a TEV cleavable 6xHis fusion; 6xHis (TEV cleavable) (cleaved yes); made in house; host or cells: bacterial cells
T1 sequence (Q99640 75-362): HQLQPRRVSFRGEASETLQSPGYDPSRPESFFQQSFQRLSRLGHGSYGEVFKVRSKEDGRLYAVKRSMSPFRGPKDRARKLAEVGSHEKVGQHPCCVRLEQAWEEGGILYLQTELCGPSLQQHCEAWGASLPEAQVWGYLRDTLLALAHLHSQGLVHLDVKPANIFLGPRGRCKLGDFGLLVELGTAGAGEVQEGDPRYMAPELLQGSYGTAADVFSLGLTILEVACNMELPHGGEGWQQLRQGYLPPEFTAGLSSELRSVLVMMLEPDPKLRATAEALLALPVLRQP
Summary of the method: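 Luminescent ADP-Glo Max read-out of ADP produced by 15 nM PKMYT1 (residues 75-362, bacterial, His-tag removed) from 500 µM ATP without peptide substrate. Reaction: 50 mM HEPES pH 7.5, 10 mM MgCl2, 1 mM EGTA, 0.01% Brij-35, 60 min, 26 °C. IC50 values fitted from 10-point curves.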

[2] = target: T2, WEE1 (Homo sapiens, UniProt P30291); assay: Selectivity versus WEE1 assay (ADP-Glo enzymatic assay); assay type: biochemical; settings: for IC50: ADP-Glo; for PKMYT1 vs. WEE1 selectivity: fold difference in selectivity for PKMYT1 over WEE1
T2 construct: purchased Thermo Fisher PR7373A
Summary of the method: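 ADP-Glo luminescence read-out after a 60 min reaction at 26° C, initiated by 30 µM ATP, with 15 nM enzyme in HEPES pH 7.5/MgCl2/EGTA/Brij-35 buffer containing 1% DMSO. Replicate IC50 values had to agree within 3-fold and fits needed r2 >0.9.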

[3] = 15 nM PKMYT1 kinase domain, 500 µM ATP, 60 minutes at 26° C., banded
[4] = 15 nM WEE1, 60 minutes at 26° C., banded
[5] = banded, ">N" = at least in this band but could be higher
[6] = PKMYT1 kinase domain 15 nM, banded values

T2 sequence (P30291 whole entry): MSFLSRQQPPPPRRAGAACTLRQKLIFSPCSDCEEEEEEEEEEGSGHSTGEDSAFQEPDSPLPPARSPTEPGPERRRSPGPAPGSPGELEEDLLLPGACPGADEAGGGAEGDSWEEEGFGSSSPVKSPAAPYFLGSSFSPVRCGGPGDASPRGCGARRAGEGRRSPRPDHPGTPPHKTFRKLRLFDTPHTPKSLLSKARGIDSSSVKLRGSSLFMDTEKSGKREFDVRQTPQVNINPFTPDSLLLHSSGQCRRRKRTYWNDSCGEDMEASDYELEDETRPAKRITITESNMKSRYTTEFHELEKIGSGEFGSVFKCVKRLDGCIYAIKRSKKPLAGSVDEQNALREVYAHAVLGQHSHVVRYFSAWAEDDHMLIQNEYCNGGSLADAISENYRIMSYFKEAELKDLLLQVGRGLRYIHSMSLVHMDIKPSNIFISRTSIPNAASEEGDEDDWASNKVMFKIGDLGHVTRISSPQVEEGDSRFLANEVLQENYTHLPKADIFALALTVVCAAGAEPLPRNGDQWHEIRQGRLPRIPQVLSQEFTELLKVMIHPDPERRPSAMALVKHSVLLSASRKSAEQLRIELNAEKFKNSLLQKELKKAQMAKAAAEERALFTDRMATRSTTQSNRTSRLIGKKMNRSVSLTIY

IC50 [1, 3]	IC50 [2, 4]	PKMYT1 vs. WEE1 selectivity [2, 5]	IC50 [1, 6]	IC50 ([2]; WEE1 15 nM, banded values)	PKMYT1 vs. WEE1 selectivity ([2]; banded)	Structure (SMILES)
50 to 1000 nM	> 11000 nM	X (100-<1000 fold)				Cc1ccc(O)c(C)c1NC(=O)c1cnc(NCc2cc3ccccc3[nH]2)s1 [BAA-357, 2-(((1H-indol-2-yl)methyl)amino)-N-(3-hydroxy-2,6-dimethylphenyl)thiazole-5-carboxamide]
1000 to 11000 nM	> 11000 nM	W (10-<100 fold)				Cc1ccc(O)c(C)c1NC(=O)c1cnc(Nc2cc(C(C)(C)C)nn2-c2ccccc2)s1 [BAA-359, 2-((3-(tert-butyl)-1-phenyl-1H-pyrazol-5-yl)amino)-N-(3-hydroxy-2,6-dimethylphenyl)thiazole-5-carboxamide]
50 to 1000 nM	> 11000 nM	X (100-<1000 fold)				Cc1ccc(O)c(C)c1NC(=O)c1cnc(Nc2nn(C)cc2-c2ccccc2)s1 [BAA-373, N-(3-hydroxy-2,6-dimethylphenyl)-2-((1-methyl-4-phenyl-1H-pyrazol-3-yl)amino)thiazole-5-carboxamide]
< 50 nM	1000 to 11000 nM	X (100-<1000 fold)				Cc1cn(-c2cncn2C)nc1Nc1ncc(C(=O)Nc2c(C)ccc(O)c2C)s1 [BAA-387, N-(3-hydroxy-2,6-dimethylphenyl)-2-((4-methyl-1-(1-methyl-1H-imidazol-5-yl)-1H-pyrazol-3-yl)amino)thiazole-5-carboxamide]
< 50 nM	1000 to 11000 nM	X (100-<1000 fold)				Cc1c[nH]nc1Nc1ncc(C(=O)Nc2c(C)ccc(O)c2C)s1 [BAA-388, N-(3-hydroxy-2,6-dimethylphenyl)-2-((4-methyl-1H-pyrazol-3-yl)amino)thiazole-5-carboxamide]
< 50 nM	> 11000 nM	Y (1000-5000 fold)				Cc1ccc(O)c(C)c1NC(=O)c1cnc(Nc2nn(-c3ccccc3)cc2C#N)s1 [BAA-389, 2-((4-cyano-1-phenyl-1H-pyrazol-3-yl)amino)-N-(3-hydroxy-2,6-dimethylphenyl)thiazole-5-carboxamide]
			< 50 nM	1000 to 11000 nM	X (100-<1000 fold)	Cc1ccc(O)c(C)c1NC(=O)c1cnc(Nc2ncccc2Cl)s1 [BAA-400, 2-((3-chloropyridin-2-yl)amino)-N-(3-hydroxy-2,6-dimethylphenyl)thiazole-5-carboxamide]
			50 to 1000 nM	> 11000 nM	X (100-<1000 fold)	Cc1ccc(O)c(C)c1NC(=O)c1cnc(Nc2ncccc2C#N)s1 [BAA-408, 2-((3-cyanopyridin-2-yl)amino)-N-(3-hydroxy-2,6-dimethylphenyl)thiazole-5-carboxamide]
			< 50 nM	> 11000 nM	Y (1000-5000 fold)	Cc1nccc(Nc2ncc(C(=O)Nc3c(C)ccc(O)c3C)s2)n1 [BAA-434, N-(3-hydroxy-2,6-dimethylphenyl)-2-((2-methylpyrimidin-4-yl)amino)thiazole-5-carboxamide]

Continued, compound first:

Structure (SMILES)	IC50 [1, 3]	IC50 [2, 4]	PKMYT1 vs. WEE1 selectivity [2, 5]	IC50 [1, 6]	IC50 ([2]; WEE1 15 nM, banded values)	PKMYT1 vs. WEE1 selectivity ([2]; banded)
Cc1ccc(O)c(C)c1NC(=O)c1cnc(NCc2nccs2)s1 [BAA-358, N-(3-hydroxy-2,6-dimethylphenyl)-2-((thiazol-2-ylmethyl)amino)thiazole-5-carboxamide]	50 to 1000 nM	> 11000 nM	X (100-<1000 fold)			
Cc1ccc(O)c(C)c1NC(=O)c1cnc(NCc2cn[nH]c2)s1 [BAA-360, 2-(((1H-pyrazol-4-yl)methyl)amino)-N-(3-hydroxy-2,6-dimethylphenyl) thiazole-5-carboxamide]	< 50 nM	> 11000 nM	Y (1000-5000 fold)			
Cc1ccc(O)c(C)c1NC(=O)c1cnc(NCc2nccn2C)s1 [BAA-362, N-(3-hydroxy-2,6-dimethylphenyl)-2-(((1-methyl-1H-imidazol-2-yl)methyl)amino)thiazole-5-carboxamide]	1000 to 11000 nM	> 11000 nM	W (10-<100 fold)			
Cc1cccc(CNc2ncc(C(=O)Nc3c(C)ccc(O)c3C)s2)c1O [BAA-363, N-(3-hydroxy-2,6-dimethylphenyl)-2-((2-hydroxy-3-methylbenzyl)amino)thiazole-5-carboxamide]	50 to 1000 nM	> 11000 nM	X (100-<1000 fold)			
Cc1nc(CNc2ncc(C(=O)Nc3c(C)ccc(O)c3C)s2)no1 [BAA-364, N-(3-hydroxy-2,6-dimethylphenyl)-2-(((5-methyl-1,2,4-oxadiazol-3-yl)methyl)amino) thiazole-5-carboxamide]	1000 to 11000 nM	> 11000 nM	W (10-<100 fold)			
Cc1cn(Cc2ncco2)nc1Nc1ncc(C(=O)Nc2c(C)ccc(O)c2C)s1 [BAA-366, N-(3-hydroxy-2,6-dimethylphenyl)-2-((4-methyl-1-(oxazol-2-ylmethyl)-1H-pyrazol-3-yl)amino) thiazole-5-carboxamide]	< 50 nM	1000 to 11000 nM	X (100-<1000 fold)			
Cc1cn(CC(=O)N2CCC2)nc1Nc1ncc(C(=O)Nc2c(C)ccc(O)c2C)s1 [BAA-374, 2-((1-(2-(azetidin-1-yl)-2-oxoethyl)-4-methyl-1H-pyrazol-3-yl)amino)-N-(3-hydroxy-2,6-dimethylphenyl)thiazole-5-carboxamide]	< 50 nM	1000 to 11000 nM	X (100-<1000 fold)			
Cc1ccc(O)c(C)c1NC(=O)c1cnc(Nc2c(C)cnn2Cc2cccc(F)c2)s1 [BAA-375, 2-((1-(3-Fluorobenzyl)-4-methyl-1H-pyrazol-5-yl)amino)-N-(3-hydroxy-2,6-dimethylphenyl)thiazole-5-carboxamide]	1000 to 11000 nM	> 11000 nM	W (10-<100 fold)			
Cc1cn(-c2cncc(C(F)(F)F)c2)nc1Nc1ncc(C(=O)Nc2c(C)ccc(O)c2C)s1 [BAA-380, N-(3-hydroxy-2,6-dimethylphenyl)-2-((4-methyl-1-(5-(trifluoromethyl)pyridin-3-yl)-1H-pyrazol-3-yl)amino)thiazole-5-carboxamide]	50 to 1000 nM	1000 to 11000 nM	W (10-<100 fold)			
Cc1ccc(O)c(C)c1NC(=O)c1cnc(Nc2nn(-c3ccc(C(F)(F)F)nc3)cc2Cl)s1 [BAA-382, 2-((4-chloro-1-(6-(trifluoromethyl)pyridin-3-yl)-1H-pyrazol-3-yl)amino)-N-(3-hydroxy-2,6-dimethylphenyl) thiazole-5-carboxamide]	50 to 1000 nM	> 11000 nM	X (100-<1000 fold)			
Cc1cn(-c2cnn(CCO)c2)nc1Nc1ncc(C(=O)Nc2c(C)ccc(O)c2C)s1 [BAA-395, N-(3-hydroxy-2,6-dimethylphenyl)-2-((1′-(2-hydroxyethyl)-4-methyl-1′H-[1,4′-bipyrazol]-3-yl)amino)thiazole-5-carboxamide]				< 50 nM	1000 to 11000 nM	X (100-<1000 fold)
Cc1ccc(O)c(C)c1NC(=O)c1cnc(Nc2ncc(F)cc2Cl)s1 [BAA-404, 2-((3-chloro-5-fluoropyridin-2-yl)amino)-N-(3-hydroxy-2,6-dimethylphenyl)thiazole-5-carboxamide]				< 50 nM	> 11000 nM	Y (1000-5000 fold)
Cc1ccc(O)c(C)c1NC(=O)c1cnc(Nc2nc(Cl)ccc2C(F)(F)F)s1 [BAA-405, 2-((6-chloro-3-(trifluoromethyl)pyridin-2-yl)amino)-N-(3-hydroxy-2,6-dimethylphenyl)thiazole-5-carboxamide]				50 to 1000 nM	> 11000 nM	X (100-<1000 fold)
C#Cc1cccc(Nc2ncc(C(=O)Nc3c(C)ccc(O)c3C)s2)n1 [BAA-431, 2-((6-ethynylpyridin-2-yl)amino)-N-(3-hydroxy-2,6-dimethylphenyl)thiazole-5-carboxamide]				50 to 1000 nM	> 11000 nM	X (100-<1000 fold)
Cc1ccc(O)c(C)c1NC(=O)c1cnc(Nc2ccncn2)s1 [BAA-435, N-(3-hydroxy-2,6-dimethylphenyl)-2-(pyrimidin-4-ylamino)thiazole-5-carboxamide]				< 50 nM	> 11000 nM	Y (1000-5000 fold)
Cc1nc(Cl)cc(Nc2ncc(C(=O)Nc3c(C)ccc(O)c3C)s2)n1 [BAA-436, 2-((6-chloro-2-methylpyrimidin-4-yl)amino)-N-(3-hydroxy-2,6-dimethylphenyl)thiazole-5-carboxamide]				< 50 nM	> 11000 nM	Z (>5000 fold)
Cc1ccc(O)c(C)c1NC(=O)c1cnc(Nc2ncc(C(F)(F)F)o2)s1 [BAA-437, N-(3-hydroxy-2,6-dimethylphenyl)-2-((5-(trifluoromethyl)oxazol-2-yl)amino)thiazole-5-carboxamide]				1000 to 11000 nM	> 11000 nM	W (10-<100 fold)
